Values joined by “and” are separate entries in the source; they are usually repeats but may differ in a detail not shown here. Equal values may be shown once. Inconclusive results and toxic doses are left out. Rule for the calls: active = survival T/C of 150% or more; inactive = T/C below 125% in these data.
Test system: B6C3F1 mice, B16 melanoma ip, median survival T/C
Test: NCI In Vivo Anticancer Drug Screen. Data for tumor model B16 Melanoma (intraperitoneal) in B6C3F1 mice
Settings: endpoint: median survival time, higher = longer survival
Method in brief: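 Mice bearing transplanted tumor were dosed with compound or vehicle, and survival was recorded. Activity is expressed as the treated-group measurement (T) divided by the vehicle control measurement (C).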

[1] = dose: 25.0 mg/kg/injection, schedule: Q01DX009 (ip), vehicle: Klucel (hydroxypropylcellulose) (HPC)
[2] = dose: 50.0 mg/kg/injection, schedule: Q01DX009 (ip), vehicle: Klucel (hydroxypropylcellulose) (HPC)
[3] = dose: 100.0 mg/kg/injection, schedule: Q01DX009 (ip), vehicle: Klucel (hydroxypropylcellulose) (HPC)
[4] = dose: 200.0 mg/kg/injection, schedule: Q01DX009 (ip), vehicle: Klucel (hydroxypropylcellulose) (HPC)
[5] = dose: 400.0 mg/kg/injection, schedule: Q01DX009 (ip), vehicle: Klucel (hydroxypropylcellulose) (HPC)
[6] = dose: 25.0 mg/kg/injection, schedule: Q01DX009 (ip), vehicle: saline
[7] = dose: 50.0 mg/kg/injection, schedule: Q01DX009 (ip), vehicle: saline
[8] = dose: 100.0 mg/kg/injection, schedule: Q01DX009 (ip), vehicle: saline
[9] = dose: 1.56 mg/kg/injection, schedule: Q01DX009 (ip), vehicle: saline with Tween-80
[10] = dose: 3.12 mg/kg/injection, schedule: Q01DX009 (ip), vehicle: saline with Tween-80
[11] = dose: 12.5 mg/kg/injection, schedule: Q01DX009 (ip), vehicle: saline with Tween-80
[12] = dose: 12.5 mg/kg/injection, schedule: Q01DX009 (ip), vehicle: saline
[13] = dose: 6.25 mg/kg/injection, schedule: Q01DX009 (ip), vehicle: saline
[14] = dose: 0.75 mg/kg/injection, schedule: Q01DX009 (ip), vehicle: water
[15] = dose: 3.0 mg/kg/injection, schedule: Q01DX009 (ip), vehicle: water

Measured: T/C

COc1ccc2ccccc2c1C1NC(=O)c2ccccc2N1 (centres undefined)
inactive: dose: 12.5 mg/kg/injection, schedule: Q01DX009 (ip), vehicle: Klucel (hydroxypropylcellulose) (HPC) 96 % of control | [1] 100 % of control | [2] 96 % of control | [3] 100 % of control | [4] 104 % of control | [5] 102 % of control

CC(=O)CC(=O)CCC(=O)O
inactive: [6] 97 % of control | [7] 97 % of control | [8] 93 % of control

S=C(N/N=C1/CCCC/C1=N/NC(=S)N1CCOCC1)N1CCOCC1
inactive: [9] 124 % of control | [10] 116 % of control | dose: 6.25 mg/kg/injection, schedule: Q01DX009 (ip), vehicle: saline with Tween-80 119 % of control

C(CC1CO1)C1CO1 (centres undefined)
inactive: dose: 2.5 mg/kg/injection, schedule: Q01DX009 (ip), vehicle: Klucel (hydroxypropylcellulose) (HPC) 94 % of control | dose: 5.0 mg/kg/injection, schedule: Q01DX009 (ip), vehicle: Klucel (hydroxypropylcellulose) (HPC) 101 % of control | dose: 10.0 mg/kg/injection, schedule: Q01DX009 (ip), vehicle: Klucel (hydroxypropylcellulose) (HPC) 101 % of control | dose: 20.0 mg/kg/injection, schedule: Q01DX009 (ip), vehicle: Klucel (hydroxypropylcellulose) (HPC) 111 % of control | dose: 40.0 mg/kg/injection, schedule: Q01DX009 (ip), vehicle: Klucel (hydroxypropylcellulose) (HPC) 107 % of control | dose: 80.0 mg/kg/injection, schedule: Q01DX009 (ip), vehicle: Klucel (hydroxypropylcellulose) (HPC) 98 % of control

CC(/C=C/c1ccccc1)=Nc1ccccc1
inactive: [11] 99 % of control | dose: 25.0 mg/kg/injection, schedule: Q01DX009 (ip), vehicle: saline with Tween-80 102 % of control | dose: 50.0 mg/kg/injection, schedule: Q01DX009 (ip), vehicle: saline with Tween-80 99 % of control | dose: 100.0 mg/kg/injection, schedule: Q01DX009 (ip), vehicle: saline with Tween-80 115 % of control | dose: 200.0 mg/kg/injection, schedule: Q01DX009 (ip), vehicle: saline with Tween-80 110 % of control

CCC1OC(OC)C=CC1=O (centres undefined)
inactive: [12] 106 % of control | [6] 108 % of control | [7] 104 % of control

[N-]=[N+]=[N-]
inactive: dose: 1.5 mg/kg/injection, schedule: Q01DX009 (ip), vehicle: saline 101 % of control | dose: 3.0 mg/kg/injection, schedule: Q01DX009 (ip), vehicle: saline 90 % of control | dose: 6.0 mg/kg/injection, schedule: Q01DX009 (ip), vehicle: saline 103 % of control | dose: 12.0 mg/kg/injection, schedule: Q01DX009 (ip), vehicle: saline 108 % of control

Clc1ncnc2c1ncn2C1CCCO1 (centres undefined)
inactive: [6] 93 % of control | [7] 99 % of control | [8] 88 % of control and 94 % of control

Cc1nc(C(Cl)(Cl)Cl)[nH]c(=O)c1SCCO
inactive: dose: 25.0 mg/kg/injection, schedule: Q01DX009 (ip), vehicle: distilled water + alcohol 111 % of control | dose: 50.0 mg/kg/injection, schedule: Q01DX009 (ip), vehicle: distilled water + alcohol 107 % of control | dose: 100.0 mg/kg/injection, schedule: Q01DX009 (ip), vehicle: distilled water + alcohol 102 % of control | dose: 200.0 mg/kg/injection, schedule: Q01DX009 (ip), vehicle: distilled water + alcohol 106 % of control | dose: 400.0 mg/kg/injection, schedule: Q01DX009 (ip), vehicle: distilled water + alcohol 119 % of control

NCCCNCCCCNC(=O)C(O)NC(=O)CC(O)CCCCN=C(N)N (centres undefined)
inactive: [13] 101 % of control | [12] 99 % of control | [6] 98 % of control and 101 % of control | [7] 99 % of control and 101 % of control | [8] 111 % of control and 107 % of control

CC(C)C(NC(=O)CCNC(=O)OCc1ccccc1)C(=O)O (centres undefined)
inactive: [3] 100 % of control | [4] 116 % of control | [5] 87 % of control

CC(C)(C)N1CC1CNC(=O)C(=O)NCC1CN1C(C)(C)C (centres undefined)
active: [11] 150 % of control
inactive: dose: 0.78 mg/kg/injection, schedule: Q01DX009 (ip), vehicle: saline with Tween-80 99 % of control | [9] 101 % of control | [10] 109 % of control

CNCCN=c1ccc2c3c1c(O)c1c(O)ccc(=O)c1c3[nH]n2CCNCCO
active: dose: 0.38 mg/kg/injection, schedule: Q01DX009 (ip), vehicle: water 273 % of control | [14] 357 % of control | dose: 1.5 mg/kg/injection, schedule: Q01DX009 (ip), vehicle: water 357 % of control | [15] 309 % of control | dose: 3.12 mg/kg/injection, schedule: Q01DX009 (ip), vehicle: water 169 % of control

COc1cccc2c1C(=O)c1c(O)c3c(c(O)c1C2=O)C[C@@](O)(C(C)=O)C[C@@H]3OC1CC(NC(=O)C(N)CC(C)C)C(O)C(C)O1 (some centres undefined)
active: dose: 6.25 mg/kg/injection, schedule: Q01DX001 (ip), vehicle: saline 179 % of control | dose: 12.5 mg/kg/injection, schedule: Q01DX001 (ip), vehicle: saline 204 % of control

OCC(O)C(O)C(O)C(O)CO (centres undefined)
inactive: dose: 75.0 mg/kg/injection, schedule: Q01DX009 (ip), vehicle: saline 107 % of control | dose: 150.0 mg/kg/injection, schedule: Q01DX009 (ip), vehicle: saline 104 % of control | dose: 300.0 mg/kg/injection, schedule: Q01DX009 (ip), vehicle: saline 112 % of control | dose: 600.0 mg/kg/injection, schedule: Q01DX009 (ip), vehicle: saline 112 % of control | dose: 1200.0 mg/kg/injection, schedule: Q01DX009 (ip), vehicle: saline 98 % of control

Nc1ncnc2c1ncn2C1OC(CO)C(O)C1O (centres undefined)
inactive: dose: 1.56 mg/kg/injection, schedule: Q01DX009 (ip), vehicle: saline 94 % of control | dose: 3.12 mg/kg/injection, schedule: Q01DX009 (ip), vehicle: saline 94 % of control | [13] 96 % of control | [12] 107 % of control | [6] 63 % of control | [7] 45 % of control | [8] 37 % of control

CCN(CC)CCCNc1nccc2c(C)c3[nH]c4ccncc4c3cc12
active: dose: 0.38 mg/kg/injection, schedule: Q01DX009 (ip), vehicle: other 176 % of control | dose: 0.75 mg/kg/injection, schedule: Q01DX009 (ip), vehicle: other 170 % of control | dose: 1.5 mg/kg/injection, schedule: Q01DX009 (ip), vehicle: other 180 % of control | dose: 3.0 mg/kg/injection, schedule: Q01DX009 (ip), vehicle: other 202 % of control | dose: 6.0 mg/kg/injection, schedule: Q01DX009 (ip), vehicle: other 257 % of control

CNC(=O)c1cccc2c(Nc3ccc(NS(C)(=O)=O)cc3OC)c3cccc(C)c3nc12
active: [15] 168 % of control
inactive: [14] 116 % of control | dose: 0.78 mg/kg/injection, schedule: Q01DX009 (ip), vehicle: water 114 % of control | dose: 6.25 mg/kg/injection, schedule: Q01DX009 (ip), vehicle: water 106 % of control

Cc1c2cc[n+](CCN3CCCCC3)cc2c(C)c2c1[nH]c1ccc(O)cc12
active: dose: 6.25 mg/kg/injection, schedule: Q01DX009 (ip), vehicle: suspension in saline 153 % of control | dose: 12.5 mg/kg/injection, schedule: Q01DX009 (ip), vehicle: suspension in saline 204 % of control | [6] 172 % of control and 189 % of control

C[CH2][Pb]([CH2]C)([CH2]C)[O]C(=O)COc1ccccc1
inactive: dose: 0.38 mg/kg/injection, schedule: Q01DX009 (ip), vehicle: Klucel (hydroxypropylcellulose) (HPC) 94 % of control | dose: 0.75 mg/kg/injection, schedule: Q01DX009 (ip), vehicle: Klucel (hydroxypropylcellulose) (HPC) 105 % of control | dose: 1.5 mg/kg/injection, schedule: Q01DX009 (ip), vehicle: Klucel (hydroxypropylcellulose) (HPC) 101 % of control | dose: 3.0 mg/kg/injection, schedule: Q01DX009 (ip), vehicle: Klucel (hydroxypropylcellulose) (HPC) 91 % of control | dose: 6.0 mg/kg/injection, schedule: Q01DX009 (ip), vehicle: Klucel (hydroxypropylcellulose) (HPC) 97 % of control

Nc1ccc(OC(=O)Oc2ccc(N)cc2)cc1
inactive: [8] 113 % of control | dose: 200.0 mg/kg/injection, schedule: Q01DX009 (ip), vehicle: saline 104 % of control | dose: 400.0 mg/kg/injection, schedule: Q01DX009 (ip), vehicle: saline 98 % of control

CSc1nc(N)cc(NC(=O)CCl)n1
inactive: [1] 102 % of control | [2] 100 % of control | [3] 92 % of control

NCCCNCCCCNC(=O)C(O)NC(=O)CCCCCCN=C(N)N (centres undefined)
inactive: [13] 108 % of control | [12] 95 % of control

From PubChem BioAssay AID200 (DTP/NCI, 2004)
